According to ChEMBL document CHEMBL1201862, “PubChem BioAssay data set” (2004):
The source made the active and inactive calls.

How the values were obtained:
Cytochrome P450 2D6 = Cytochrome P450 2D6 (Homo sapiens, UniProt P10635); test: qHTS Assay for Inhibitors and Substrates of Cytochrome P450 2D6. [Related pubchem assays: 410 ]; format: ADME; details: read-out: Potency
[1] = target: Lysosomal acid glucosylceramidase (Homo sapiens, UniProt P04062); test: Dose response cell-based high throughput screening assay to identify enhancers of beta-glucosidase activity. [Related pubchem assays: 784 ]; format: functional
[2] = Luminescent dose response cell-based high throughput screening assay for inhibitors of the Janus kinase 2 mutant JAK2V617F. [Related pubchem assays: 1446 (Primary screen.), 1521 (Confirmation assay.), 1486 (Counter screen.)]; format: functional
[3] = cytotoxicity toward NIH3T3 fibroblasts, dose response, counter-screen, cell-based, ATP luminescence, mouse fibroblasts (AID 2010); format: functional;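 note: cells exposed to compound for about 90 hours before reading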
[4] = inhibitors of intracellular T. cruzi replication, confirmation, NIH3T3 host cells, beta-gal luminescence (AID 2044); format: functional, cell-based;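 note: intracellular parasites grown in NIH/3T3 mouse fibroblasts as host cells; luminescent beta-galactosidase reporter signal from transgenic T. cruzi replicating inside host cells; inhibitors lower the luminescence signal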
Cytochrome P450 2C19 = Cytochrome P450 2C19 (Homo sapiens, UniProt P33261); test: Cytochrome panel assay with activity outcomes. Panel member name: p450-cyp2c19 Compounds with AC50 equal or less than 10 uM are considered active; format: functional; details: read-out: AC50
Cytochrome P450 1A2 = target: T1, Cytochrome P450 1A2 (Homo sapiens, UniProt P05177);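 note: PubChem cytochrome P450 panel assay, CYP1A2 panel member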
T1 sequence (P05177 whole entry): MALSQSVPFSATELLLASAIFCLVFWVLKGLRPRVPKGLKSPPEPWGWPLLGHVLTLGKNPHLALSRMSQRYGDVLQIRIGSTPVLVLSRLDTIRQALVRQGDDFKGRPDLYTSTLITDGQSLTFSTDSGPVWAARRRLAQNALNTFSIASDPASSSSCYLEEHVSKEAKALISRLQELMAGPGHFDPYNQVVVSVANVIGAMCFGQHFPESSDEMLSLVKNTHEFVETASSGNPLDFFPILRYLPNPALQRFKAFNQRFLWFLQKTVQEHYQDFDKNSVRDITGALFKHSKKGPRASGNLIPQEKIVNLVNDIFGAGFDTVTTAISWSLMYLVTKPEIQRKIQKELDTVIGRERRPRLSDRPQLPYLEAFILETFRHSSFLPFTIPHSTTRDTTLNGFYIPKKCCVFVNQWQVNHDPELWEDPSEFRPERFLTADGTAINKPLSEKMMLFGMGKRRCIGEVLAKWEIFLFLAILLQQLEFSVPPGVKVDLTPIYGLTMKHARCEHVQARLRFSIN

[5] = Shn3 3'UTR reporter inhibitors, dose response, cell-based, Clone20 osteoblasts, firefly luciferase, cherry-picked (AID 624132); format: functional;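 note: firefly luciferase luminescence from reporter carrying the Shn3 3'UTR in osteoblasts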
[6] = growth suppression of beta-catenin-knockout colon cells, dose response, cell-based, HCT116, human colon tumor (AID 1045); format: functional;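 note: HCT116 colon tumor cells with beta catenin knocked out; cells exposed to compound for 60 hours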
[7] = control 3'UTR Renilla luciferase suppression, dose response, counter-screen for Shn3 inhibitor project, cell-based, Clone20-Shn3RL, cherry-picked (AID 624133); format: functional
[8] = cytotoxicity in HPDE-C7 cells, cell-based, fluorescence, HTS (AID 430); format: functional; details: Homo sapiens
[9] = growth suppression of PTEN-null colon cells, dose response, cell-based, HCT116 PTEN knockout (AID 1047); format: functional;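 note: HCT116 colon tumor cells with PTEN knocked out; cells exposed to compound for 60 hours before readout; potency for loss of cell viability measured by luminescence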
[10] = HepG2 cell cytotoxicity, dose response, cytotoxicity control for Shn3 inhibitor project, CellTiter-Glo, cherry-picked (AID 624134); format: functional, cell-based
[11] = cytotoxicity in KRAS-transformed pancreatic duct cells, primary screen, cell-based, fluorescence, HTS (AID 431); format: functional; details: Homo sapiens;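 note: cell line used: HPDE-C7K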
[12] = HIV-1 Env-mediated cell fusion inhibitors, dose response, CCR5-tropic Env (AID 2279); format: functional
[13] = target: Protein-tyrosine kinase 2-beta (Homo sapiens, UniProt Q14289);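 note: potency of inhibitors of PYK2 kinase phosphorylation of poly-GT substrate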
Major prion protein = Major prion protein (Homo sapiens, UniProt P04156); format: functional, cell-based
[14] = test system: Streptococcus sp. 'group A'; test: growth inhibition of control SK(-) GAS strain, dose response, counter-screen for streptokinase expression inhibitor project, luminescence, kanamycin, BacTiterGlo, confirmation (AID 1900); format: functional, organism-based
[15] = target: 26S proteasome non-ATPase regulatory subunit 14 (Homo sapiens, UniProt O00487); test: inhibition of proteasome subunit RPN11 – biochemical, fluorescence polarization, uHTS hits, confirmation (AID 602368); format: functional
[16] = NIH-3T3 fibroblast cytotoxicity, dose response, cytotoxicity control, cell-based, fluorescence, Alamar Blue, secondary assay (AID 2327); format: functional;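 note: NIH-3T3 mouse fibroblasts cultured with fluconazole at 8 µg/mL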
[17] = C. albicans growth with fluconazole, confirmation, fluorescence, retest (AID 2467); format: functional, cell-based
[18] = target: 72 kDa type IV collagenase (Homo sapiens, UniProt P08253); test: Dose Response validation of uHTS RPN11 inhibitor hits using a MMP-2 Fluorescence assay.; format: functional
INS1 = test: beta cell apoptosis inhibitors, cytokine rescue, dose response, luminescence, retest (AID 449756); format: functional, cell-based; details: Rattus norvegicus;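 note: cell death triggered by IL-1 beta plus TNF-alpha plus IFN-gamma mixture; protective hits raise ATP signal compared with cytokine alone wells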
Streptococcus = test: Group A Streptococcus viability loss, dose response, counter-screen for streptokinase expression inhibitor project, luminescence, BacTiterGlo (AID 1915); format: functional, organism-based;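 note: potency for reduction of bacterial viability or growth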
Streptokinase A = target: T2, Streptokinase A (Streptococcus pyogenes serotype M1, UniProt P10520); test: S. pyogenes streptokinase expression inhibitors, potency, dose response, plasminogen activation absorbance, OD405 (AID 1914); format: functional, Streptococcus pyogenes M1 GAS;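 note: secreted streptokinase activity via plasminogen activation per viability signal from cell pellet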
T2 sequence (P10520 whole entry): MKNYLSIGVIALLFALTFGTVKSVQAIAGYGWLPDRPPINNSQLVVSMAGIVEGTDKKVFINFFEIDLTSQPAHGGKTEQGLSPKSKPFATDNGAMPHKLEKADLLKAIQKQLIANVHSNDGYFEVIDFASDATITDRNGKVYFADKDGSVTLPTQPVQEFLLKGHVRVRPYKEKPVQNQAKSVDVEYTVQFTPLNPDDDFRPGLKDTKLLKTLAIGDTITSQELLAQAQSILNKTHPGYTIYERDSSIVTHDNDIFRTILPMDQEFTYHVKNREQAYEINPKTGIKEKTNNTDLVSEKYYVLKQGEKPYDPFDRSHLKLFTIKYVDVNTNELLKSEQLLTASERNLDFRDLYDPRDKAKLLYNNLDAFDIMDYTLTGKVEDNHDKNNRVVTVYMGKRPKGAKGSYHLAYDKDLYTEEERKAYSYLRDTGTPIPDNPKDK

Prothrombin = Prothrombin (Bos taurus, UniProt P00735); test: thrombin inhibition, dose response, biochemical, fluorescence polarization, uHTS hits (AID 602369); format: functional
[19] = A Cell Based Secondary Assay To Explore Cytotoxicity of Compounds that Sensitize Mycobacterium Tuberculosis to Beta-Lactam Antibiotics.; format: functional

## COc1ccc(OCC2CC3C(CCC(C)C3c3ccc(Br)cc3)C(=O)O2)cc1 (stereo not given)
Cytochrome P450 2D6
  AC50: 7.94 µM (inconclusive)

## Cc1ccc(N2C(=O)Nc3ccc(Br)cc3C2(O)C(=O)NCCCN(C)C)cc1C (stereo not given)
[1]
  EC50: > 50 µM (not active)

## COc1ccc(N2CCc3c(C)nc4c(OC)cc(OC)cc4c32)c(OC)c1
[2]
  IC50: 1.87 µM (active)
[3]
  EC50: > 60 µM (not active)
[4]
  EC50: 0.839 µM (active)
Cytochrome P450 2C19
  AC50: 28.2 µM (inconclusive)
Cytochrome P450 1A2
  AC50: 22.4 µM (inconclusive)

## c1ccc(Cn2c(SCc3nc4ccccc4s3)nnc2-c2ccco2)cc1
[1]
  EC50: > 50 µM (not active)

## Cc1cc(C)c(O)c(-c2cc(C(=O)Nc3ccc(S(=O)(=O)N4CCOCC4)cc3)[nH]n2)c1
[5]
  AC50: 5.48 µM (active)
[6]
  EC50: 10 µM (active)
[7]
  AC50: 7.37 µM (active)
[8]
  EC50: 9.42 µM (active)
[9]
  EC50: 8.35 µM (active)
[10]
  AC50: 19.9 µM (active)
[11]
  EC50: 9.32 µM (active)

## CCOc1ccc(CCNC(=O)c2ccc3c(=O)[nH]c4c(C(=O)NC(C)C)sc(=S)n4c3c2)cc1
[12]
  IC50: 30.1 µM (active)

## Cc1cc(NC(=O)CSc2nc(C(C)C)nc3ccccc23)no1
[13]
  IC50: > 69.5 µM (not active)
Major prion protein
  IC50: 0.936 µM (active)
cells
  IC50: > 138 µM (inactive)

## COc1cc([N+](=O)[O-])cc(/C=N/NC(=O)c2cc(-c3ccccc3)nc3ccccc23)c1O
[14]
  EC50: 5.37 µM (active)
[15]
  IC50: 22.3 µM (active)
[16]
  EC50: 22.5 µM (inconclusive)
[17]
  EC50: 2.08 µM (active)
[18]
  IC50: 3.79 µM (active)
INS1
  AC50: 3.63 µM (active)
Streptococcus
  EC50: 8.58 µM (active)
Streptokinase A
  EC50: > 150 µM (not active)
Prothrombin
  IC50: 75.1 µM (active)
[12]
  IC50: 31.7 µM (active)

## Cc1cc(O)nc(N/N=C/c2c(F)c(F)c(F)c(F)c2F)n1
[19]
  CC50: > 40 µM (active)
